Test results published in patent US6355799B1, “Substituted benzene compounds, process for their preparation, and herbicidal and defoliant compositions containing them” (ISK Americas Incorporated, priority 1997, dated 2002).

Key:
Type in all cases: in vivo
[1] = test system: field corn (Zea mays L., var. Dekalb 535, CORN); experiment: Post-emerge test, crop safety; settings: post-emerge; for Post-emerge Herbicidal Activity CORN: crop damage rating 0-100 at 14 days after application; for Post-emerge Herbicidal Activity CORN (crop damage rating): 14 days after application, rating scale 0-100
How it was run: (§1)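 Each test used a mechanized track sprayer delivering 187 l/ha of acetone solution at 15–1000 g ai/ha. Post-emerge foliage at 2–3 leaves was treated with added 0.25% v/v non-ionic surfactant and bottom-watered only. Injury was assessed on day 14, where 100 means total kill.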

[2] = test system: upland rice (Oryza sp., var. Tebonnet, RICE); experiment: Post-emerge test, crop safety; settings: post-emerge; for Post-emerge Herbicidal Activity RICE: crop damage rating 0-100 at 14 days after application; for Post-emerge Herbicidal Activity RICE (crop damage rating): 14 days after application, rating scale 0-100
How it was run: as §1

[3] = test system: johnsongrass (Sorghum halepense, SORHA); experiment: Post-emerge test, greenhouse herbicide activity screening; settings: post-emerge; for Post-emerge Herbicidal Activity SORHA: phytotoxicity rating 0-100 at 14 days after application; for Post-emerge Herbicidal Activity SORHA (phytotoxicity rating): 14 days after application, rating scale 0-100
How it was run: (§2)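 Rating: 0–100 visual injury, 14 DAA. Application: acetone, 187 l/ha, 15–1000 g ai/ha, flat-fan track sprayer with nozzle 40–45 cm above soil or canopy. Post-emerge runs used 0.25% v/v surfactant on 2–3 leaf plants.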

[4] = test system: redroot pigweed (Amaranthus retroflexus, AMARE); experiment: as above; settings: post-emerge; for Post-emerge Herbicidal Activity AMARE: phytotoxicity rating 0-100 at 14 days after application; for Post-emerge Herbicidal Activity AMARE (phytotoxicity rating): 14 days after application
How it was run: as §2

[5] = test system: barnyardgrass (Echinochloa crus-galli, ECHCG); experiment: as above; settings: post-emerge; for Post-emerge Herbicidal Activity ECHCG: phytotoxicity rating 0-100 at 14 days after application; for Post-emerge Herbicidal Activity ECHCG (phytotoxicity rating): 14 days after application, rating scale 0-100
How it was run: as §2

[6] = test system: lambsquarters (Chenopodium album, CHEAL); experiment: as above; settings: post-emerge; for Post-emerge Herbicidal Activity CHEAL: phytotoxicity rating 0-100 at 14 days after application; for Post-emerge Herbicidal Activity CHEAL (phytotoxicity rating): 14 days after application, rating scale 0-100
How it was run: as §2

[7] = test system: ivyleaf morningglory (Ipomoea hederacea, IPOHE); experiment: as above; settings: post-emerge; for Post-emerge Herbicidal Activity IPOHE: phytotoxicity rating 0-100 at 14 days after application; for Post-emerge Herbicidal Activity IPOHE (phytotoxicity rating): 14 days after application, rating scale 0-100
How it was run: as §2

[8] = test system: green foxtail (Setaria viridis, SETVI); experiment: as above; settings: post-emerge; for Post-emerge Herbicidal Activity SETVI: phytotoxicity rating 0-100 at 14 days after application; for Post-emerge Herbicidal Activity SETVI (phytotoxicity rating): 14 days after application, rating scale 0-100
How it was run: as §2

[9] = test system: velvetleaf (Abutilon theophrasti, ABUTH); experiment: as above; settings: post-emerge; for Post-emerge Herbicidal Activity ABUTH: phytotoxicity rating 0-100 at 14 days after application; for Post-emerge Herbicidal Activity ABUTH (phytotoxicity rating): 14 days after application, rating scale 0-100
How it was run: as §2

[10] = test system: large crabgrass (Digitaria sanguinalis, DIGSA); experiment: as above; settings: post-emerge; for Post-emerge Herbicidal Activity DIGSA: phytotoxicity rating 0-100 at 14 days after application; for Post-emerge Herbicidal Activity DIGSA (phytotoxicity rating): 14 days after application, rating scale 0-100
How it was run: as §2

[11] = test system: sicklepod (Cassia obtusifolia, CASOB); experiment: as above; settings: post-emerge; for Post-emerge Herbicidal Activity CASOB: phytotoxicity rating 0-100 at 14 days after application; for Post-emerge Herbicidal Activity CASOB (phytotoxicity rating): 14 days after application, rating scale 0-100
How it was run: as §2

COc1c(Cl)cc(F)c(-n2c(=O)n3n(c2=O)CCCC3)c1NC(=O)c1ccc2ccccc2c1 [9-15]
Post-emerge Herbicidal Activity CORN ([1]; 63 g ai/ha): 5 | Post-emerge Herbicidal Activity CORN ([1]; 250 g ai/ha): 10 | Post-emerge Herbicidal Activity RICE ([2]; 63 g ai/ha): 40 | Post-emerge Herbicidal Activity RICE ([2]; 250 g ai/ha): 70 | Post-emerge Herbicidal Activity SORHA ([3]; 63 g ai/ha): 0 | Post-emerge Herbicidal Activity SORHA ([3]; 250 g ai/ha): 10 | Post-emerge Herbicidal Activity AMARE ([4]; 63 g ai/ha): 100 | Post-emerge Herbicidal Activity AMARE ([4]; 250 g ai/ha): 100 | Post-emerge Herbicidal Activity ECHCG ([5]; 63 g ai/ha): 0 | Post-emerge Herbicidal Activity ECHCG ([5]; 250 g ai/ha): 10 | Post-emerge Herbicidal Activity CHEAL ([6]; 63 g ai/ha): 100 | Post-emerge Herbicidal Activity CHEAL ([6]; 250 g ai/ha): 100 | Post-emerge Herbicidal Activity IPOHE ([7]; 63 g ai/ha): 100 | Post-emerge Herbicidal Activity IPOHE ([7]; 250 g ai/ha): 100 | Post-emerge Herbicidal Activity SETVI ([8]; 63 g ai/ha): 10 | Post-emerge Herbicidal Activity SETVI ([8]; 250 g ai/ha): 35 | Post-emerge Herbicidal Activity ABUTH ([9]; 63 g ai/ha): 100 | Post-emerge Herbicidal Activity ABUTH ([9]; 250 g ai/ha): 100 | Post-emerge Herbicidal Activity DIGSA ([10]; 63 g ai/ha): 0 | Post-emerge Herbicidal Activity DIGSA ([10]; 250 g ai/ha): 20 | Post-emerge Herbicidal Activity CASOB ([11]; 63 g ai/ha): 100 | Post-emerge Herbicidal Activity CASOB ([11]; 250 g ai/ha): 100

Cn1c(C(F)(F)F)cc(=O)n(-c2c(O)cc(Cl)cc2Cl)c1=O [16-1]
Post-emerge Herbicidal Activity CORN (crop damage rating) ([1]; 63 g ai/ha): 0 | Post-emerge Herbicidal Activity CORN (crop damage rating) ([1]; 250 g ai/ha): 0 | Post-emerge Herbicidal Activity RICE (crop damage rating) ([2]; 63 g ai/ha): 0 | Post-emerge Herbicidal Activity RICE (crop damage rating) ([2]; 250 g ai/ha): 10 | Post-emerge Herbicidal Activity SORHA (phytotoxicity rating) ([3]; 63 g ai/ha): 20 | Post-emerge Herbicidal Activity SORHA (phytotoxicity rating) ([3]; 250 g ai/ha): 40 | Post-emerge Herbicidal Activity AMARE (phytotoxicity rating) ([4]; 63 g ai/ha, rating scale 0-100 (0 no damage, 100 complete death)): 70 | Post-emerge Herbicidal Activity AMARE (phytotoxicity rating) ([4]; 250 g ai/ha, rating scale 0-100): 70 | Post-emerge Herbicidal Activity ECHCG (phytotoxicity rating) ([5]; 63 g ai/ha): 0 | Post-emerge Herbicidal Activity ECHCG (phytotoxicity rating) ([5]; 250 g ai/ha): 0 | Post-emerge Herbicidal Activity CHEAL (phytotoxicity rating) ([6]; 63 g ai/ha): 0 | Post-emerge Herbicidal Activity CHEAL (phytotoxicity rating) ([6]; 250 g ai/ha): 70 | Post-emerge Herbicidal Activity IPOHE (phytotoxicity rating) ([7]; 63 g ai/ha): 30 | Post-emerge Herbicidal Activity IPOHE (phytotoxicity rating) ([7]; 250 g ai/ha): 70 | Post-emerge Herbicidal Activity SETVI (phytotoxicity rating) ([8]; 63 g ai/ha): 0 | Post-emerge Herbicidal Activity SETVI (phytotoxicity rating) ([8]; 250 g ai/ha): 0 | Post-emerge Herbicidal Activity ABUTH (phytotoxicity rating) ([9]; 63 g ai/ha): 70 | Post-emerge Herbicidal Activity ABUTH (phytotoxicity rating) ([9]; 250 g ai/ha): 100 | Post-emerge Herbicidal Activity DIGSA (phytotoxicity rating) ([10]; 63 g ai/ha): 20 | Post-emerge Herbicidal Activity DIGSA (phytotoxicity rating) ([10]; 250 g ai/ha): 80 | Post-emerge Herbicidal Activity CASOB (phytotoxicity rating) ([11]; 63 g ai/ha): 0 | Post-emerge Herbicidal Activity CASOB (phytotoxicity rating) ([11]; 250 g ai/ha): 0
